ChEMBL document CHEMBL1201862, “PubChem BioAssay data set” (2004)
Active and inactive are the calls of the source.

What was measured:
[1] = bead-based luminescence quenchers, dual-tagged ARNT – biochemical, AlphaScreen, cherry-pick, artefact control for ARNT-TACC3 interaction inhibitor project, dose response (AID 651705); type: functional;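 note: AlphaScreen bead proximity signal that flags compounds interfering with the detection technology; potency reflects signal decrease which marks the compound as an assay artifact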
[2] = inhibition of ARNT PAS-B/TACC3 complex formation – biochemical, AlphaScreen, cherry-picked samples, confirmation (AID 651703); type: functional, Homo sapiens;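 note: His-tagged ARNT PAS-B domain paired with GST-TACC3 E629A dimer coactivator fragment; potency of inhibitors that break up the complex and lower AlphaScreen signal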
Cytochrome P450 2C9 = Cytochrome P450 2C9 (Homo sapiens, UniProt P11712)
Cytochrome P450 2D6 = Cytochrome P450 2D6 (Homo sapiens, UniProt P10635);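 note: CYP2D6 member of a cytochrome P450 panel assay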
Cytochrome P450 2C19 = Cytochrome P450 2C19 (Homo sapiens, UniProt P33261); assay: Cytochrome panel assay with activity outcomes. Panel member name: p450-cyp2c19 Compounds with AC50 equal or less than 10 uM are considered active; type: functional; conditions: read-out: AC50
[3] = target: Ras and Rab interactor 1/Tyrosine-protein kinase ABL1 (Homo sapiens, UniProt P00519+Q13671); type: functional;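 note: biochemical TR-FRET dose-response test measuring inhibition of binding between Rin1 and Abl proteins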
Melanocortin receptor 4 = Melanocortin receptor 4 (Homo sapiens, UniProt P32245); assay: inhibitors of MC4R cAMP signaling – cell-based, TR-FRET, biased antagonists, dose response (AID 602298); type: functional;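 note: antagonist potency against agonist-stimulated cAMP production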
HT-1080 = assay: HT1080 cell viability loss – fluorescence readout (AID 620); type: functional, cell-based; conditions: Homo sapiens
[4] = target: Luciferin 4-monooxygenase (Photinus pyralis, UniProt P08659); assay: Counter Screen for Luciferase-based Assay Positives. [Related pubchem assays: 620, 618, 411 ]
[5] = cAMP pathway inhibition in counterscreen cell line – TR-FRET cAMP detection, counter-screen for MC4R biased antagonist project, dose response (AID 602305); type: functional, cell-based;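 note: U2OS cells stimulated with forskolin near its EC80 as the cAMP inducer; potency is for inhibition of forskolin-stimulated cAMP signaling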
Streptokinase A = target: T1, Streptokinase A (Streptococcus pyogenes serotype M1, UniProt P10520); assay: viability-normalized secreted streptokinase activity reduction – plasminogen activation absorbance, OD405, dose response (AID 1914); type: functional, Streptococcus pyogenes M1 GAS;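 note: secreted streptokinase activity via plasminogen activation per viability signal from cell pellet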
T1 sequence (P10520 whole entry): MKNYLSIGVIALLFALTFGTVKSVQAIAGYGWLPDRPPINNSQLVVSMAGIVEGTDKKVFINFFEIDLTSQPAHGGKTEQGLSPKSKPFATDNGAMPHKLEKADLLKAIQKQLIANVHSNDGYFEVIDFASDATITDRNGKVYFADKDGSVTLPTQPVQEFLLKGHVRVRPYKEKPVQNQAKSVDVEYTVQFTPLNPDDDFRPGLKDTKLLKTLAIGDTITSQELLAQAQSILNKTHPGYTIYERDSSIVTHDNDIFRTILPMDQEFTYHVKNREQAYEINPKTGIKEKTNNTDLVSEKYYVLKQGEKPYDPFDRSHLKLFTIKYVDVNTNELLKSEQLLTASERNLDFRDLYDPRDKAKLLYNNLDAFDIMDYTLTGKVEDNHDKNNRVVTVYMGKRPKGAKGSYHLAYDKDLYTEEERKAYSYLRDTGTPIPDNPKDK

[6] = NIH3T3 cell viability loss – ATP luminescence, mouse fibroblasts, counter-screen, dose response (AID 2010); type: functional, cell-based;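 note: cells exposed to compound for about 90 hours before reading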
[7] = viability of uninfected HEp-2 cells – cell-based, HTS, cytotoxicity control for RSV inhibitor project, dose response (AID 2410); type: functional; conditions: human respiratory syncytial virus
Streptococcus = assay: GAS UMAA2166 growth inhibition – luminescence, BacTiterGlo, counter-screen for streptokinase expression inhibitor project, dose response (AID 1915); type: functional, organism-based;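 note: potency for reduction of bacterial viability or growth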
[8] = system: Streptococcus sp. 'group A'; assay: Streptococcus pyogenes SK(-)GAS viability under kanamycin – luminescence, BacTiterGlo, confirmation, counter-screen for streptokinase expression inhibitor project, dose response (AID 1900); type: functional, organism-based
[9] = Luminescence Cell-Based Dose Retest to Confirm Inhibitors of Cancer Stem Cells. [Related pubchem assays (depositor defined):AID2717, AID2721]; type: functional; conditions: Homo sapiens
[10] = Trypanosoma cruzi growth suppression in host cells – NIH3T3 host cells, beta-gal luminescence, confirmation (AID 2044); type: functional, cell-based;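 note: intracellular parasites grown in NIH/3T3 mouse fibroblasts as host cells; luminescent beta-galactosidase reporter signal from transgenic T. cruzi replicating inside host cells; inhibitors lower the luminescence signal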
[11] = target: T2, Carboxy-terminal domain RNA polymerase II polypeptide A small phosphatase 1 (Homo sapiens, UniProt Q9GZU7); assay: CTDSP1 inhibitors, concentration-response, biochemical, absorbance readout, ultra-high-throughput screen actives (AID 540297); type: functional
T2 sequence (Q9GZU7 whole entry): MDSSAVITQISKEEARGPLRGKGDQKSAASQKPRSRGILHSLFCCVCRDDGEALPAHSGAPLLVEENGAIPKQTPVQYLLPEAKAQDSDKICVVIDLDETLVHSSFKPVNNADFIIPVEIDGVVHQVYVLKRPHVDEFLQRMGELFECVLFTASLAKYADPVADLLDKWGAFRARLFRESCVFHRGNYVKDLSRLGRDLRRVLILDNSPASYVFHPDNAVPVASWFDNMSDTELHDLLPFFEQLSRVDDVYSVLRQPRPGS

[12] = target: 72 kDa type IV collagenase (Homo sapiens, UniProt P08253); assay: Dose Response validation of uHTS RPN11 inhibitor hits using a MMP-2 Fluorescence assay.; type: functional
Prothrombin = Prothrombin (Bos taurus, UniProt P00735); assay: thrombin protease inhibitors – biochemical, fluorescence polarization, uHTS hits, dose response (AID 602369); type: functional
[13] = target: 26S proteasome non-ATPase regulatory subunit 14 (Homo sapiens, UniProt O00487); assay: inhibition of proteasome subunit RPN11 – biochemical, fluorescence polarization, uHTS hits, confirmation (AID 602368); type: functional
[14] = target: T3, Rac GTPase-activating protein 1 (Homo sapiens, UniProt Q9H0H5); assay: blockers of MgcRacGAP-driven Rac1 GTP hydrolysis – biochemical, ADP Hunter fluorescence, primary and confirmatory, confirmation (AID 624330); type: functional
T3 sequence (Q9H0H5 whole entry): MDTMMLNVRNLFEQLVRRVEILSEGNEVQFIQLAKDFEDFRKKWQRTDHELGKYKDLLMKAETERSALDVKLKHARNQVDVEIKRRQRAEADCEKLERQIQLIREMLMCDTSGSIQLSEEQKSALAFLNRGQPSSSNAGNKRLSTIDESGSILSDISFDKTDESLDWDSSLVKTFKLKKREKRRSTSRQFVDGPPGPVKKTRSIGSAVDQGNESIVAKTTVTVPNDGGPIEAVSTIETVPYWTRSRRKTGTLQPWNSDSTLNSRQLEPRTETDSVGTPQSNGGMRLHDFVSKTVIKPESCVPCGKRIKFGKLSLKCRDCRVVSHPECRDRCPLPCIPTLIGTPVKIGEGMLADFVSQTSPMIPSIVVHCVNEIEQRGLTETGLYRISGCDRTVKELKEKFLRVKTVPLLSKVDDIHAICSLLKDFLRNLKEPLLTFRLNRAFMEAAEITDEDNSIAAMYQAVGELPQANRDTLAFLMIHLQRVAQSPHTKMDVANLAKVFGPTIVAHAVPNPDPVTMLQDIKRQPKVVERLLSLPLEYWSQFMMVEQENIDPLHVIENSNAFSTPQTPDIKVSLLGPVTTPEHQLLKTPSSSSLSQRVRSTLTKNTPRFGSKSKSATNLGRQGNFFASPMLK

[15] = fluconazole-exposed Candida albicans growth modulators – fluorescence, retest, confirmation (AID 2467); type: functional, cell-based
[16] = NIH-3T3 fibroblast cytotoxicity, dose response, cytotoxicity control, cell-based, fluorescence, Alamar Blue, secondary assay (AID 2327); type: functional;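 note: NIH-3T3 mouse fibroblasts cultured with fluconazole at 8 µg/mL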

Ras and Rab interactor 1/Tyrosine-protein kinase ABL1, sequence (P00519 whole entry): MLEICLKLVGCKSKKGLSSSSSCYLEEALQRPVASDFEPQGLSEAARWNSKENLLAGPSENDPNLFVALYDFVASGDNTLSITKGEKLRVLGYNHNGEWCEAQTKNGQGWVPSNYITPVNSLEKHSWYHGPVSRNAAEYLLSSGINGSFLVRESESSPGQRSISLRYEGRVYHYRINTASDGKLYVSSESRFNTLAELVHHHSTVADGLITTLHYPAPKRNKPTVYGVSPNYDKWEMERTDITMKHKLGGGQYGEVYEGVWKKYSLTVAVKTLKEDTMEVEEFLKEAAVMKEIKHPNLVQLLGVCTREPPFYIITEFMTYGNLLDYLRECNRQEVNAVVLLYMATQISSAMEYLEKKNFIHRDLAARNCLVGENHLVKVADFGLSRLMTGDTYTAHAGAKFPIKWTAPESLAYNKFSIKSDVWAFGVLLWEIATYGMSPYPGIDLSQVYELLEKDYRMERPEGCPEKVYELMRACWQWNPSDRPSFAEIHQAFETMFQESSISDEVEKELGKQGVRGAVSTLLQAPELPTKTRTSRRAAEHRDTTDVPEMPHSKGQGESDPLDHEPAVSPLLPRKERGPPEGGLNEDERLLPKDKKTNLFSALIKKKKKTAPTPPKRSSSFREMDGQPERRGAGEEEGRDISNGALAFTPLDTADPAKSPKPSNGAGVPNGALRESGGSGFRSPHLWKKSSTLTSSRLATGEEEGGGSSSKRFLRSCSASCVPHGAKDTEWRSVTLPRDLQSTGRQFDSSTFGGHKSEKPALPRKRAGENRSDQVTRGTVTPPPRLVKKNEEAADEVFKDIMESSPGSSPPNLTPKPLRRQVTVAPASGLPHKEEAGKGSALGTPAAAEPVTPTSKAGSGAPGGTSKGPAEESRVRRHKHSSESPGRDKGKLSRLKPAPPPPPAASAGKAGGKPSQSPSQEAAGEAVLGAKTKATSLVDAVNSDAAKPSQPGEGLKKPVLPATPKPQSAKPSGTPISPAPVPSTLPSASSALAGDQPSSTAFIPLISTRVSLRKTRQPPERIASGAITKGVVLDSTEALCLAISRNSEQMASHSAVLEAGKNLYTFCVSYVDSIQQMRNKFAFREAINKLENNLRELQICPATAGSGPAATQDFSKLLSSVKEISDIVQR
Ras and Rab interactor 1/Tyrosine-protein kinase ABL1, sequence (Q13671 whole entry): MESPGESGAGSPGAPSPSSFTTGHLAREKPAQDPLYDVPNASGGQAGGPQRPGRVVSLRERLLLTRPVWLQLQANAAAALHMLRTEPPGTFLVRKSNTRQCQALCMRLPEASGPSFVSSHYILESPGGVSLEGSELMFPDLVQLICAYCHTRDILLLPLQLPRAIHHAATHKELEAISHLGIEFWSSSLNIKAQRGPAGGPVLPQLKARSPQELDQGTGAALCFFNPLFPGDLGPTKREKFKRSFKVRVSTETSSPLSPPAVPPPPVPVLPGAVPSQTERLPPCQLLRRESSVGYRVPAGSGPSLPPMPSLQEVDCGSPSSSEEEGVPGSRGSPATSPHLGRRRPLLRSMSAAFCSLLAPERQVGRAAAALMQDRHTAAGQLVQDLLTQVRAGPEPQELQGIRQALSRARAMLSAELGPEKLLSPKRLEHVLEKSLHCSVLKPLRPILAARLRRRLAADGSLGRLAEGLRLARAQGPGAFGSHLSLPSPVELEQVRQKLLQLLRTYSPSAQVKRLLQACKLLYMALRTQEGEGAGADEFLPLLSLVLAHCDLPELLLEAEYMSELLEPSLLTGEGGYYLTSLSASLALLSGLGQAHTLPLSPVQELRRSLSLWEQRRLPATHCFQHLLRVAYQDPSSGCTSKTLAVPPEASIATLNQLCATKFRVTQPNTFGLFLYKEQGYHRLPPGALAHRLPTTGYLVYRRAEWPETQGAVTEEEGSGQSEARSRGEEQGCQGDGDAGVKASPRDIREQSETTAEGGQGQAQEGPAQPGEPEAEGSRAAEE
Melanocortin receptor 4, sequence (P32245 whole entry): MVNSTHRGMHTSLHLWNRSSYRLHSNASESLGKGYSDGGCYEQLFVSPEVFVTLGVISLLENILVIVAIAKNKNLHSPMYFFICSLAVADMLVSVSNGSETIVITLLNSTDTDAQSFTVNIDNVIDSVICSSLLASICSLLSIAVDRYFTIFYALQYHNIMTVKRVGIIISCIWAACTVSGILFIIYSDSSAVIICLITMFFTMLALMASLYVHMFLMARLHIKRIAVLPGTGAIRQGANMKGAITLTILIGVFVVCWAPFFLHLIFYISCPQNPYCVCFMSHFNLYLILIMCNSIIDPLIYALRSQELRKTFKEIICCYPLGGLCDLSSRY
Luciferin 4-monooxygenase, sequence (P08659 whole entry): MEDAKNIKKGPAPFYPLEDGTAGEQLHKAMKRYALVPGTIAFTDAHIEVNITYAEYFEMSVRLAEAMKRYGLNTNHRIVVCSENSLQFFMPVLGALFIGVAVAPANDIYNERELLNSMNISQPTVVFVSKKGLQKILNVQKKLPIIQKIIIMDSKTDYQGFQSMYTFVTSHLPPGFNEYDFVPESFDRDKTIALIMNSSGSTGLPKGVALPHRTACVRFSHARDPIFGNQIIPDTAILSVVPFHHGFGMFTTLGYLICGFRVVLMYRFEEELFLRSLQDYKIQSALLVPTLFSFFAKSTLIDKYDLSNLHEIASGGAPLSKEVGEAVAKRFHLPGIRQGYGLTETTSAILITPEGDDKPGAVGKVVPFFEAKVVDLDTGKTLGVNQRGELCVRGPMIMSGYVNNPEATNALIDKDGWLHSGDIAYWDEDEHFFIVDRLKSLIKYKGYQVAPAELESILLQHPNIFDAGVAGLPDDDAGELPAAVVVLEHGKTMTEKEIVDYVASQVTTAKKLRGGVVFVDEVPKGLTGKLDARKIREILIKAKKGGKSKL
Cytochrome P450 2D6, sequence (P10635 whole entry): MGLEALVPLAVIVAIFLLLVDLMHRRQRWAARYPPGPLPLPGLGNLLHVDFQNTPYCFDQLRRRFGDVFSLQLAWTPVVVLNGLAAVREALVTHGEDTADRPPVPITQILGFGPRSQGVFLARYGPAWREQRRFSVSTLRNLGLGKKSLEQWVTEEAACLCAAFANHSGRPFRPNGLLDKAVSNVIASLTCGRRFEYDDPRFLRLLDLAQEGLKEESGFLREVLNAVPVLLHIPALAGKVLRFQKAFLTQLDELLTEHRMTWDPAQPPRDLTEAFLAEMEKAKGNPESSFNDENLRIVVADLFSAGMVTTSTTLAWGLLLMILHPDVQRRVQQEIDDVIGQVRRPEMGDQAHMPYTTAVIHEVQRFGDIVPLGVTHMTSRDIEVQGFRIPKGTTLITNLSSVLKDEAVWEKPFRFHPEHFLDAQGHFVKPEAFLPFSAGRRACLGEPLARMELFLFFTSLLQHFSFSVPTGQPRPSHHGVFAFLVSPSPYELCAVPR
Cytochrome P450 2C19, sequence (P33261 whole entry): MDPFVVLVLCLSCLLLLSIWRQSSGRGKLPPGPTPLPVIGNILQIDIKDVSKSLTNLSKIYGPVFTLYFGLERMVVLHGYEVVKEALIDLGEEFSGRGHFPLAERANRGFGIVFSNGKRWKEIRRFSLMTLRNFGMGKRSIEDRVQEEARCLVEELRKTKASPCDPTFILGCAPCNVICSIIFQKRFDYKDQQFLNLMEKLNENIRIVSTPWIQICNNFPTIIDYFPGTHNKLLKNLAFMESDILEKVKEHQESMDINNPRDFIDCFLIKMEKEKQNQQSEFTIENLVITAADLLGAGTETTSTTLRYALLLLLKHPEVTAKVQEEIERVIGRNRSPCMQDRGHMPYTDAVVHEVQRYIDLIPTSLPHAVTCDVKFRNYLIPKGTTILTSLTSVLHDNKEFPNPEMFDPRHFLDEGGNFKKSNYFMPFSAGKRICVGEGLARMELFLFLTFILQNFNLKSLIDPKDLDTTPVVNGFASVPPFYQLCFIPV
26S proteasome non-ATPase regulatory subunit 14, sequence (O00487 whole entry): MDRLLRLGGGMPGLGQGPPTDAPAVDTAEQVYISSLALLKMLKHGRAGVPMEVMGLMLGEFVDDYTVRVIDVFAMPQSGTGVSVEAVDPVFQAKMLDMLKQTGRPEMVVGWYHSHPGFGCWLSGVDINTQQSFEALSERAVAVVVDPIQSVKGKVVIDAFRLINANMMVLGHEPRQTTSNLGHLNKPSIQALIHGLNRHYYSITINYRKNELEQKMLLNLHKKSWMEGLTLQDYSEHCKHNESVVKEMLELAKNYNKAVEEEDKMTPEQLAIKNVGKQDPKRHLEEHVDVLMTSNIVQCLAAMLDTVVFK
72 kDa type IV collagenase, sequence (P08253 whole entry): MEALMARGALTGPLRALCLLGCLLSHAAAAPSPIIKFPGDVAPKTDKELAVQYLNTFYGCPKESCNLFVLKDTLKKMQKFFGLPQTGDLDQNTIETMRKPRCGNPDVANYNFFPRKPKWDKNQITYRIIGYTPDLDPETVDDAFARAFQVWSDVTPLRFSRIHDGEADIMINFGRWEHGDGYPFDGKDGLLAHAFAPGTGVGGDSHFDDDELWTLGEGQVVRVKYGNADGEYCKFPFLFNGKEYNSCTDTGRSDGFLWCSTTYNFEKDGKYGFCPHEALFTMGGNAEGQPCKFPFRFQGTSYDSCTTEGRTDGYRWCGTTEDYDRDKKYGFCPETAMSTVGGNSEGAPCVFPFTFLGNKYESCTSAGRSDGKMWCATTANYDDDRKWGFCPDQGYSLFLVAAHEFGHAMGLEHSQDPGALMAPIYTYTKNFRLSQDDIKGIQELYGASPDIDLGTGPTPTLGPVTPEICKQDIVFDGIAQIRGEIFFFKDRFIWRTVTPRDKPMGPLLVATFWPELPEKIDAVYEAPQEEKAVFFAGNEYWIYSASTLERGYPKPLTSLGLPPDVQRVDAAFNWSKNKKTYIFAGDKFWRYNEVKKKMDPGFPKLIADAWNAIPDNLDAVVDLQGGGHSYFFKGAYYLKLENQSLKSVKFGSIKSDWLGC

With `Cc1ccccc1N1C(=O)NC(=O)/C(=C\NNC(=O)c2ccncc2)C1=O` as the compound, how does the AC50 [1] read?
The AC50 was 114 µM (active).

For `CCCN(C(=O)Cc1n[nH]c(N)n1)C1(C(=O)Nc2ccccc2C)CCCCC1`, which AC50 [2] is on record?
Its AC50 is 90.8 µM (active).

What about the AC50 (Cytochrome P450 2C9) of the same compound?
Its AC50 is 0.224 µM (inconclusive).

What about the AC50 (Cytochrome P450 2D6) of the same compound?
Its AC50 is 17.8 µM (inconclusive).

What about the AC50 (Cytochrome P450 2C19) of the same compound?
Its AC50 is 20 µM (inconclusive).

For `CCCCSCc1[nH]c(O)nc1C(=O)CCCCC(=O)OCC`, which IC50 [3] is on record?
The IC50 was 4.76 µM (active).

For `Cc1cc(NC(=O)CC(C)C)c(=O)n(Cc2ccccc2F)c1`, which AC50 [1] is on record?
Its AC50 is 130 µM (active).

What does the source list for `N#Cc1cc2c(nc1SCC(=O)Nc1nccs1)CCCCC2`?
IC50 (Melanocortin receptor 4): 11.8 µM (inactive); EC50 (HT-1080): > 50 µM (not active); EC50 [4]: > 100 µM (not active); IC50 [5]: 14.9 µM (inactive)

Which results are given for `CC(C)C1C(c2ccccc2)N(C)C(c2ccccc2)CC1(O)c1ccccc1` (centres undefined)?
EC50 (Streptokinase A): 2.22 µM (active); EC50 [6]: > 60 µM (not active); IC50 (Melanocortin receptor 4): > 64.6 µM (inactive); CC50 [7]: 25.3 µM (active); EC50 (Streptococcus): 7.03 µM (active); EC50 [8]: 1.55 µM (active); AC50 [9]: 1.9 µM (active); EC50 [10]: 2.43 µM (active); IC50 [5]: > 64.6 µM (inactive)

For `CN(CCc1ccccc1)C(=O)c1ccc(NC(=O)Cc2ccc(NC(=O)C3CCN(C(=O)C4CCC4)CC3)cc2)cc1`, which IC50 [3] is on record?
The IC50 was 16.9 µM (inactive).

For `COc1ccc(O)c(/C=N/NC(=O)c2c(C)nnn2-c2nonc2N)c1`, which IC50 [11] is on record?
Its IC50 is 6.12 µM (active).

What about the IC50 [12] of the same compound?
Its IC50 is > 100 µM (inactive).

And the IC50 (Prothrombin)?
The IC50 was 54.6 µM (active).

And the IC50 [13]?
The IC50 was 13.1 µM (active).

What about the IC50 [14] of the same compound?
Its IC50 is 79.7 µM (active).

What about the EC50 [15] of the same compound?
The EC50 was > 38 µM (not active).

And the EC50 [16]?
Its EC50 is > 150 µM (inconclusive).

Which AC50 [2] does the source give for `C/C(CC(=O)Nc1ccc(F)cc1)=N\NC(=O)c1ccccn1` here?
The AC50 was 89.2 µM (active).
